Assay results as given in patent US20240122182A1, “PESTICIDALLY ACTIVE HETEROCYCLIC DERIVATIVES WITH SULFUR CONTAINING SUBSTITUENTS” (SYNGENTA CROP PROTECTION AG, priority 2021, published 2024).

Experiments:
Assay type in all cases: in vivo
[1] = test system: Carpocapsa (Cydia) Pomonella (Codling Moth); test: Activity against Carpocapsa (Cydia) pomonella (codling moth), larvicide, feeding/contact; settings: 336 h, application rate of 12.5 ppm, L1 larvae, 14 days after infestation, read-out: effect in at least one of the two categories (mortality or growth inhibition)
Protocol: Diet cubes coated with paraffin were sprayed with diluted test solutions in an application chamber. After drying off the treated cubes (10 replicates) were infested with 1 L1 larvae. Samples were incubated at 26-27° C. and checked 14 days after infestation for mortality and growth inhibition. The following compounds gave an effect of at least 80% in at least one of the two categories (mortality or growth inhibition) at an application rate of 12.5 ppm: P1, P2, P3, P5, P9, P10, P11, P12, P14, P17, P19, P20, P21, P23, P24, P30, P31.

[2] = test system: Myzus persicae (Green Peach Aphid); test: Activity against Myzus persicae (green peach aphid), feeding/contact activity; settings: 144 h, application rate of 200 ppm, mixed ages, 6 days after infestation
Protocol: Sunflower leaf discs were placed onto agar in a 24-well microtiter plate and sprayed with aqueous test solutions prepared from 10′000 ppm DMSO stock solutions. After drying, the leaf discs were infested with an aphid population of mixed ages. The samples were assessed for mortality 6 days after infestation.

[3] = test system: Plutella xylostella (Diamond Back Moth); test: Activity against Plutella xylostella (diamond back moth), artificial diet; settings: 192 h, application rate of 200 ppm, eggs, 8 days after infestation, read-out: effect in at least one of the two categories (mortality or growth inhibition)
Protocol: 24-well microtiter plates with artificial diet were treated with aqueous test solutions prepared from 10′000 ppm DMSO stock solutions by pipetting. After drying, Plutella eggs were pipetted through a plastic stencil onto a gel blotting paper and the plate was closed with it. The samples were assessed for mortality and growth inhibition in comparison to untreated samples 8 days after infestation.

[4] = test system: Nilaparvata lugens (Brown Plant Hopper); test: Activity against Nilaparvata lugens (brown plant hopper), larvicide, systemic into water; settings: 168 h, application rate of 12.5 ppm, N3 nymphs, 7 days after infestation
Protocol: Larvicide, systemic into water Rice plants cultivated in a nutritive solution were treated with the diluted test solutions into nourishing cultivation system. 1 day after application plants were infested with ˜20 N3 nymphs. 7 days after infestation samples were assessed for mortality and growth regulation.

[5] = test system: Spodoptera littoralis (Egyptian Cotton Leaf Worm); test: Activity against Spodoptera littoralis (Egyptian cotton leaf worm), cotton leaf discs sprayed; settings: foliar, 72 h, application rate of 200 ppm, L1 larvae, 3 days after infestation, read-out: control (mortality, anti-feeding effect, growth inhibition)
Protocol: Cotton leaf discs were placed onto agar in 24-well microtiter plates and sprayed with aqueous test solutions prepared from 10′000 ppm DMSO stock solutions. After drying the leaf discs were infested with five L1 larvae. The samples were assessed for mortality, anti-feeding effect, and growth inhibition in comparison to untreated samples 3 days after infestation. Control of Spodoptera littoralis by a test sample is given when at least one of the categories mortality, anti-feedant effect, and growth inhibition is higher than the untreated sample.

[6] = test system: Diabrotica Balteata (Corn Root Worm); test: Activity against Diabrotica balteata (corn root worm), maize sprouts sprayed; settings: 96 h, application rate of 200 ppm, L2 larvae, 4 days after infestation, read-out: effect in at least one of the two categories (mortality or growth inhibition)
Protocol: Maize sprouts placed onto an agar layer in 24-well microtiter plates were treated with aqueous test solutions prepared from 10′000 ppm DMSO stock solutions by spraying. After drying, the plates were infested with L2 larvae (6 to 10 per well). The samples were assessed for mortality and growth inhibition in comparison to untreated samples 4 days after infestation.

[7] = test system: Chilo suppressalis (Striped Rice Stemborer); test: Activity against Chilo suppressalis (striped rice stemborer), artificial diet; settings: 144 h, application rate of 200 ppm, L2 larvae, 6 days after infestation, read-out: control (mortality, anti-feeding effect, growth inhibition)
Protocol: 24-well microtiter plates with artificial diet were treated with aqueous test solutions prepared from 10′000 ppm DMSO stock solutions by pipetting. After drying, the plates were infested with L2 larvae (6-8 per well). The samples were assessed for mortality, anti-feeding effect, and growth inhibition in comparison to untreated samples 6 days after infestation. Control of Chilo suppressalis by a test sample is given when at least one of the categories mortality, anti-feedant effect, and growth inhibition is higher than the untreated sample.

[8] = test system: Euschistus heros (Neotropical Brown Stink Bug); test: Activity against Euschistus heros (neotropical brown stink bug), soybean leaves sprayed; settings: 120 h, application rate of 200 ppm, N2 nymphs, 5 days after infestation, read-out: effect in at least one of the two categories (mortality or growth inhibition)
Protocol: Soybean leaves on agar in 24-well microtiter plates were sprayed with aqueous test solutions prepared from 10′000 ppm DMSO stock solutions. After drying the leaves were infested with N2 nymphs. The samples were assessed for mortality and growth inhibition in comparison to untreated samples 5 days after infestation.

[9] = test system: Myzus persicae (Green Peach Aphid); test: Activity against Myzus persicae (green peach aphid), systemic activity; settings: 144 h, test rate of 24 ppm, pea seedling roots in test solution, 6 days
Protocol: Roots of pea seedlings infested with an aphid population of mixed ages were placed directly into aqueous test solutions prepared from 10′000 DMSO stock solutions. The samples were assessed for mortality 6 days after placing seedlings into test solutions.

CCS(=O)(=O)c1ccc(C2CC2)nc1-c1cc2c(cn1)N(CC(F)(F)C(F)(F)F)C(=O)CC2 [P14, 6-(6-cyclopropyl-3-ethylsulfonyl-2-pyridyl)-1-(2,2,3,3,3-pentafluoropropyl)-3,4-dihydro-1,7-naphthyridin-2-one]
≥ 80%: percent effect (mortality or growth inhibition) at 12.5 ppm [1] | mortality at 200 ppm [2] | percent effect (mortality or growth inhibition) at 200 ppm [3] | mortality at 12.5 ppm [4] | mortality at 200 ppm [5] | percent effect (mortality or growth inhibition) at 200 ppm [6] | mortality at 200 ppm [7]

CCS(=O)(=O)c1cc(N(C)C(C)=O)cnc1-c1cc2c(cn1)N(CC(F)(F)C(F)(F)F)C(=O)CC2 [P8, N-[5-ethylsulfonyl-6-[2-oxo-1-(2,2,3,3,3-pentafluoropropyl)-3,4-dihydro-1,7-naphthyridin-6-yl]-3-pyridyl]-N-methyl-acetamide]
≥ 80%: mortality at 200 ppm [2] | percent effect (mortality or growth inhibition) at 200 ppm [3] | mortality at 200 ppm [5] | percent effect (mortality or growth inhibition) at 200 ppm [8] | mortality at 200 ppm [7] | mortality at 24 ppm [9]

CCS(=O)(=O)c1cc(C(F)(F)F)cnc1-c1cc2c(cn1)N(CC(F)(F)C(F)(F)F)C(=O)CC2 [P9, 6-[3-ethylsulfonyl-5-(trifluoromethyl)-2-pyridyl]-1-(2,2,3,3,3-pentafluoropropyl)-3,4-dihydro-1,7-naphthyridin-2-one]
≥ 80%: percent effect (mortality or growth inhibition) at 12.5 ppm [1] | mortality at 200 ppm [2] | percent effect (mortality or growth inhibition) at 200 ppm [3] | mortality at 12.5 ppm [4] | mortality at 200 ppm [5] | percent effect (mortality or growth inhibition) at 200 ppm [6] | mortality at 200 ppm [7]

CCS(=O)(=O)c1ccc(C2CC2)nc1-c1cc2c(cn1)N(CC(F)(F)C(F)(F)F)C(=O)OC2 [P17, 6-(6-cyclopropyl-3-ethylsulfonyl-2-pyridyl)-1-(2,2,3,3,3-pentafluoropropyl)-4H-pyrido[3,4-d][1,3]oxazin-2-one]
≥ 80%: percent effect (mortality or growth inhibition) at 12.5 ppm [1] | mortality at 200 ppm [2] | percent effect (mortality or growth inhibition) at 200 ppm [3] | mortality at 12.5 ppm [4] | mortality at 200 ppm [5] | percent effect (mortality or growth inhibition) at 200 ppm [6] | mortality at 200 ppm [7]

CCS(=O)(=O)c1cc(C2(C#N)CC2)cnc1-c1cc2c(cn1)N(CC(F)(F)F)C(=O)OC2 [P34, 1-[5-ethylsulfonyl-6-[2-oxo-1-(2,2,2-trifluoroethyl)-4H-pyrido[3,4-d][1,3]oxazin-6-yl]-3-pyridyl]cyclopropanecarbonitrile]
≥ 80%: mortality at 200 ppm [2] | percent effect (mortality or growth inhibition) at 200 ppm [3] | percent effect (mortality or growth inhibition) at 200 ppm [6] | mortality at 24 ppm [9]

CCS(=O)(=O)c1cc(OCC(C)(F)F)cnc1-c1cc2c(cn1)N(CC(F)(F)C(F)(F)F)C(=O)CC2 [P24, 6-[5-(2,2-difluoropropoxy)-3-ethylsulfonyl-2-pyridyl]-1-(2,2,3,3,3-pentafluoropropyl)-3,4-dihydro-1,7-naphthyridin-2-one]
≥ 80%: percent effect (mortality or growth inhibition) at 12.5 ppm [1] | mortality at 200 ppm [2] | percent effect (mortality or growth inhibition) at 200 ppm [3] | mortality at 12.5 ppm [4] | mortality at 200 ppm [5] | percent effect (mortality or growth inhibition) at 200 ppm [8] | percent effect (mortality or growth inhibition) at 200 ppm [6] | mortality at 200 ppm [7]

CCS(=O)(=O)c1cc(N(C)C(C)=O)cnc1-c1cc2c(cn1)N(CC(F)(F)C(F)(F)F)C(=O)OC2 [P18, N-[5-ethylsulfonyl-6-[2-oxo-1-(2,2,3,3,3-pentafluoropropyl)-4H-pyrido[3,4-d][1,3]oxazin-6-yl]-3-pyridyl]-N-methyl-acetamide]
≥ 80%: mortality at 200 ppm [2] | percent effect (mortality or growth inhibition) at 200 ppm [3] | mortality at 200 ppm [5] | mortality at 200 ppm [7] | mortality at 24 ppm [9]

CCS(=O)(=O)c1cc(C2CC2)cnc1-c1cc2c(cn1)N(CC(F)(F)C(F)(F)F)C(=O)CC2 [P19, 6-(5-cyclopropyl-3-ethylsulfonyl-2-pyridyl)-1-(2,2,3,3,3-pentafluoropropyl)-3,4-dihydro-1,7-naphthyridin-2-one]
≥ 80%: percent effect (mortality or growth inhibition) at 12.5 ppm [1] | percent effect (mortality or growth inhibition) at 200 ppm [3] | mortality at 12.5 ppm [4] | mortality at 200 ppm [5] | percent effect (mortality or growth inhibition) at 200 ppm [6] | mortality at 200 ppm [7]

CCS(=O)(=O)c1cc(OC(C)(C)C#N)cnc1-c1cc2c(cn1)N(CC(F)(F)C(F)(F)F)C(=O)CC2 [P20, 2-[[5-ethylsulfonyl-6-[2-oxo-1-(2,2,3,3,3-pentafluoropropyl)-3,4-dihydro-1,7-naphthyridin-6-yl]-3-pyridyl]oxy]-2-methyl-propanenitrile]
≥ 80%: percent effect (mortality or growth inhibition) at 12.5 ppm [1] | mortality at 200 ppm [2] | percent effect (mortality or growth inhibition) at 200 ppm [3] | mortality at 12.5 ppm [4] | mortality at 200 ppm [5] | percent effect (mortality or growth inhibition) at 200 ppm [8] | percent effect (mortality or growth inhibition) at 200 ppm [6] | mortality at 200 ppm [7]

CCS(=O)(=O)c1cc(C(C)(C)C#N)cnc1-c1cc2c(cn1)N(CC(F)(F)C(F)(F)F)C(=O)OC2 [P15, 2-[5-ethylsulfonyl-6-[2-oxo-1-(2,2,3,3,3-pentafluoropropyl)-4H-pyrido[3,4-d][1,3]oxazin-6-yl]-3-pyridyl]-2-methyl-propanenitrile]
≥ 80%: mortality at 200 ppm [2] | percent effect (mortality or growth inhibition) at 200 ppm [3] | mortality at 200 ppm [5] | percent effect (mortality or growth inhibition) at 200 ppm [8] | percent effect (mortality or growth inhibition) at 200 ppm [6] | mortality at 200 ppm [7] | mortality at 24 ppm [9]

CCS(=O)(=O)c1ccc(-c2ncccn2)nc1-c1cc2c(cn1)N(CC(F)(F)C(F)(F)F)C(=O)CC2 [P22, 6-(3-ethylsulfonyl-6-pyrimidin-2-yl-2-pyridyl)-1-(2,2,3,3,3-pentafluoropropyl)-3,4-dihydro-1,7-naphthyridin-2-one]
≥ 80%: mortality at 200 ppm [2] | percent effect (mortality or growth inhibition) at 200 ppm [3] | mortality at 200 ppm [5] | percent effect (mortality or growth inhibition) at 200 ppm [8] | percent effect (mortality or growth inhibition) at 200 ppm [6] | mortality at 200 ppm [7] | mortality at 24 ppm [9]

CCS(=O)(=O)c1cc(C(F)(F)F)cnc1-c1cc2c(cn1)N(CC(F)(F)C(F)(F)F)C(=O)OC2 [P10, 6-[3-ethylsulfonyl-5-(trifluoromethyl)-2-pyridyl]-1-(2,2,3,3,3-pentafluoropropyl)-4H-pyrido[3,4-d][1,3]oxazin-2-one]
≥ 80%: percent effect (mortality or growth inhibition) at 12.5 ppm [1] | mortality at 200 ppm [2] | percent effect (mortality or growth inhibition) at 200 ppm [3] | mortality at 12.5 ppm [4] | mortality at 200 ppm [5] | percent effect (mortality or growth inhibition) at 200 ppm [6] | mortality at 200 ppm [7]
